Laboratory results taken from PubChem BioAssay (NCI).
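GI50 marks 50% less growth. The concentration for full growth arrest is given as TGI.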

Experiments:
Experiment in all cases: DTP human tumour cell line panel, 384-well format
786-0 renal = tested on: 786-0 renal
A498 renal = tested on: A498 renal
ACHN renal = tested on: ACHN renal
BT-549 breast = tested on: BT-549 breast
CCRF-CEM leukemia = tested on: CCRF-CEM leukemia
COLO 205 colon = tested on: COLO 205 colon
DU-145 prostate = tested on: DU-145 prostate
EKVX NSCLC = tested on: EKVX NSCLC
HCC-2998 colon = tested on: HCC-2998 colon
HCT-15 colon = tested on: HCT-15 colon
HL-60(TB) leukemia = tested on: HL-60(TB) leukemia
HOP-62 NSCLC = tested on: HOP-62 NSCLC
HS 578T breast = tested on: HS 578T breast
HT29 colon = tested on: HT29 colon
KM12 colon = tested on: KM12 colon
LOX IMVI melanoma = tested on: LOX IMVI melanoma
M14 melanoma = tested on: M14 melanoma
MALME-3M melanoma = tested on: MALME-3M melanoma
MCF7 breast = tested on: MCF7 breast
MDA-MB-231 breast = tested on: MDA-MB-231 breast
MDA-MB-435 melanoma = tested on: MDA-MB-435 melanoma
MOLT-4 leukemia = tested on: MOLT-4 leukemia
NCI-H23 lung = tested on: NCI-H23 lung
NCI-H322M lung = tested on: NCI-H322M lung
NCI-H460 NSCLC = tested on: NCI-H460 NSCLC
NCI-H522 lung = tested on: NCI-H522 lung
NCI/ADR-RES ovarian = tested on: NCI/ADR-RES ovarian
OVCAR-3 ovarian = tested on: OVCAR-3 ovarian
OVCAR-4 ovarian = tested on: OVCAR-4 ovarian
OVCAR-5 ovarian = tested on: OVCAR-5 ovarian
OVCAR-8 ovarian = tested on: OVCAR-8 ovarian
PC-3 prostate = tested on: PC-3 prostate
RPMI-8226 leukemia = tested on: RPMI-8226 leukemia
RXF 393 renal = tested on: RXF 393 renal
SF-268 CNS = tested on: SF-268 CNS
SF-295 CNS = tested on: SF-295 CNS
SF-539 CNS = tested on: SF-539 CNS
SK-MEL-2 melanoma = tested on: SK-MEL-2 melanoma
SK-MEL-28 melanoma = tested on: SK-MEL-28 melanoma
SK-MEL-5 melanoma = tested on: SK-MEL-5 melanoma
SK-OV-3 ovarian = tested on: SK-OV-3 ovarian
SN12C renal = tested on: SN12C renal
SNB-75 CNS = tested on: SNB-75 CNS
SW-620 colon = tested on: SW-620 colon
T-47D breast = tested on: T-47D breast
TK-10 renal = tested on: TK-10 renal
U251 glioblastoma = tested on: U251 glioblastoma
UACC-257 melanoma = tested on: UACC-257 melanoma
UACC-62 melanoma = tested on: UACC-62 melanoma

Question: What does the source list for `C[C@@H](Oc1ccc2[nH]nc(/C=C/c3cnn(CCO)c3)c2c1)c1c(Cl)cncc1Cl`?
Answer: GI50 (786-0 renal): 214 nM; TGI (786-0 renal): 1200 nM; GI50 (A498 renal): 171 nM; TGI (A498 renal): > 100000 nM; GI50 (ACHN renal): 85.8 nM; TGI (ACHN renal): > 100000 nM; GI50 (BT-549 breast): 61.2 nM; TGI (BT-549 breast): 229 nM; GI50 (CCRF-CEM leukemia): 25.5 nM; TGI (CCRF-CEM leukemia): 60.5 nM; GI50 (COLO 205 colon): 24.8 nM; TGI (COLO 205 colon): 105 nM; GI50 (DU-145 prostate): 97.2 nM; TGI (DU-145 prostate): 755 nM; GI50 (EKVX NSCLC): 36.8 nM; TGI (EKVX NSCLC): 757 nM; GI50 (HCC-2998 colon): 399 nM; TGI (HCC-2998 colon): 2120 nM; GI50 (HCT-15 colon): 117 nM; TGI (HCT-15 colon): 1250 nM; GI50 (HL-60(TB) leukemia): 31.7 nM; TGI (HL-60(TB) leukemia): 131 nM; GI50 (HOP-62 NSCLC): 82 nM; TGI (HOP-62 NSCLC): 1080 nM; GI50 (HS 578T breast): 29.7 nM; TGI (HS 578T breast): 229 nM; GI50 (HT29 colon): 278 nM; TGI (HT29 colon): > 100000 nM; GI50 (KM12 colon): < 10 nM; TGI (KM12 colon): 145 nM; GI50 (LOX IMVI melanoma): 70 nM; TGI (LOX IMVI melanoma): 199 nM; GI50 (M14 melanoma): 331 nM; TGI (M14 melanoma): 2040 nM; GI50 (MALME-3M melanoma): 1120 nM; TGI (MALME-3M melanoma): 2340 nM; GI50 (MCF7 breast): 46.3 nM; TGI (MCF7 breast): 1600 nM; GI50 (MDA-MB-231 breast): 161 nM; TGI (MDA-MB-231 breast): 3450 nM; GI50 (MDA-MB-435 melanoma): 1140 nM; TGI (MDA-MB-435 melanoma): 2500 nM; GI50 (MOLT-4 leukemia): 19.5 nM; TGI (MOLT-4 leukemia): 48.8 nM; GI50 (NCI-H23 lung): 43.3 nM; TGI (NCI-H23 lung): 333 nM; GI50 (NCI-H322M lung): 331 nM; TGI (NCI-H322M lung): 2480 nM; GI50 (NCI-H460 NSCLC): 37 nM; TGI (NCI-H460 NSCLC): 1090 nM; GI50 (NCI-H522 lung): 31 nM; TGI (NCI-H522 lung): 554 nM; GI50 (NCI/ADR-RES ovarian): 227 nM; TGI (NCI/ADR-RES ovarian): 1410 nM; GI50 (OVCAR-3 ovarian): 74.5 nM; TGI (OVCAR-3 ovarian): 1570 nM; GI50 (OVCAR-4 ovarian): 1500 nM; TGI (OVCAR-4 ovarian): 4750 nM; GI50 (OVCAR-5 ovarian): 111 nM; TGI (OVCAR-5 ovarian): 475 nM; GI50 (OVCAR-8 ovarian): 174 nM; TGI (OVCAR-8 ovarian): 1450 nM; GI50 (PC-3 prostate): 1280 nM; TGI (PC-3 prostate): > 100000 nM; GI50 (RPMI-8226 leukemia): 34.3 nM; TGI (RPMI-8226 leukemia): 1330 nM; GI50 (RXF 393 renal): 54.4 nM; TGI (RXF 393 renal): 230 nM; GI50 (SF-268 CNS): 124 nM; TGI (SF-268 CNS): 384 nM; GI50 (SF-295 CNS): 71.1 nM; TGI (SF-295 CNS): 2060 nM; GI50 (SF-539 CNS): 23.7 nM; TGI (SF-539 CNS): 154 nM; GI50 (SK-MEL-2 melanoma): 606 nM; TGI (SK-MEL-2 melanoma): 2130 nM; GI50 (SK-MEL-28 melanoma): 1310 nM; TGI (SK-MEL-28 melanoma): 2630 nM; GI50 (SK-MEL-5 melanoma): 510 nM; TGI (SK-MEL-5 melanoma): 1920 nM; GI50 (SK-OV-3 ovarian): 114 nM; GI50 (SN12C renal): 47.7 nM; TGI (SN12C renal): 343 nM; GI50 (SNB-75 CNS): 23.4 nM; TGI (SNB-75 CNS): 213 nM; GI50 (SW-620 colon): 60.5 nM; TGI (SW-620 colon): 469 nM; GI50 (T-47D breast): 263 nM; TGI (T-47D breast): > 100000 nM; GI50 (TK-10 renal): 98.6 nM; TGI (TK-10 renal): 606 nM; GI50 (U251 glioblastoma): 156 nM; TGI (U251 glioblastoma): 766 nM; GI50 (UACC-257 melanoma): 1150 nM; TGI (UACC-257 melanoma): 2530 nM; GI50 (UACC-62 melanoma): 1290 nM; TGI (UACC-62 melanoma): 2590 nM
